From US8552048B2, “Phosphoramidate alkylator prodrugs for the treatment of cancer” (Threshold Pharmaceuticals, Inc., priority 2006, dated 2013)
Like-named read-outs stand apart in the source and are kept apart here.

Test: Pharmacokinetics in Sprague-Dawley rats (single dose i.v. and p.o.)
Type: in vivo, male Sprague-Dawley rats
Details: male, Sprague-Dawley, rat, rats; for clearance: read-out: CL (converted); for Vd: read-out: Vss; for AUC(0-t): read-out: AUC(0-t); for Cmax: read-out: Cmax; for MRT: read-out: MRT
Method: Pharmacokinetic studies were performed in male CD-1 (50 mg/kg i.p. or orally (p.o.)) or female nude mice (50 mg/kg i.v. or i.p.), male Sprague-Dawley rats (1, 5, 20 and 50 mg/kg i.v. and 100 mg/kg, p.o.), beagle dogs (20 mg/kg, i.v.) and cynomologus monkeys (20 mg/kg i.v.). Plasma TH302 concentrations were analyzed using a LC/MS method and the pharmacokinetic parameters computed using a noncompartmental method. Interspecies scaling was performed according to standard methods.
TH302 was dissolved in 50% PEG400/Saline to obtain a final concentration of 25 mg/mL, and then was further diluted to yield 25, 10, 2.5 and 0.5 mg/mL formulations of TH302 (pH The formulations were prepared just before dosing. The concentration of TH302 in dosing solution was confirmed by HPLC-UV. Male Sprague Dawley rats (body weight: 200 g to 230 g) were used in this study. Before the pharmacokinetic studies, animals were randomly assigned to four treatment groups cannulated in the carotid artery for serial blood sampling. All rats were administered a single intravenous bolus dose over one minute via the tail vein. The concentrations of TH302 in plasma were determined using a high performance liquid chromatography/mass spectrometry (HPLC/MS/MS) method. […]

[1] = in vivo, iv, 1 mg/kg, 1 mg/kg i.v. bolus, MEAN
[2] = in vivo, iv, 5 mg/kg, 5 mg/kg i.v. bolus, MEAN
[3] = in vivo, iv, 20 mg/kg, 20 mg/kg i.v. bolus, MEAN
[4] = in vivo, iv, 20 mg/kg, 20 mg/kg i.v. bolus, individual animals
[5] = in vivo, iv, 50 mg/kg, 50 mg/kg i.v. bolus, MEAN
[6] = plasma, iv, 1 mg/kg, 1 mg/kg i.v. bolus, MEAN
[7] = plasma, iv, 1 mg/kg, 1 mg/kg i.v. bolus, individual animals
[8] = plasma, iv, 5 mg/kg, 5 mg/kg i.v. bolus, MEAN
[9] = plasma, iv, 5 mg/kg, 5 mg/kg i.v. bolus, individual animals
[10] = plasma, iv, 20 mg/kg, 20 mg/kg i.v. bolus, MEAN
[11] = plasma, iv, 20 mg/kg, 20 mg/kg i.v. bolus, individual animals
[12] = plasma, iv, 50 mg/kg, 50 mg/kg i.v. bolus, MEAN
[13] = plasma, iv, 50 mg/kg, 50 mg/kg i.v. bolus, individual animals

Work on Cn1c(COP(=O)(NCCBr)NCCBr)cnc1[N+](=O)[O-] [TH302] yielded a clearance [1] of 78.2 mL/min/kg, a Vd [1] of 2.05 L/kg and a clearance [2] of 102 mL/min/kg. For the same compound, the Vd [2] was 5.09 L/kg, the Vd (in vivo, iv, 5 mg/kg, 5 mg/kg i.v. bolus, individual animals) was 2.51 L/kg and the clearance [3] was 102 mL/min/kg. For the same compound, the Vd [3] was 2.29 L/kg, the clearance [4] was 98.5 mL/min/kg and the Vd [4] was 2.29 L/kg. It also gave a clearance [5] of 98.5 mL/min/kg, a Vd [5] of 1.67 L/kg and a half-life (in vivo, iv, 1 mg/kg i.v. bolus, MEAN, read-out: T1/2 (converted)) of 2.03 h. It also gave a half-life (in vivo, iv, 5 mg/kg i.v. bolus, MEAN, read-out: T1/2 (converted)) of 3.75 h, a half-life (in vivo, iv, 20 mg/kg i.v. bolus, MEAN, read-out: T1/2 (converted)) of 4.37 h and a half-life (in vivo, iv, 50 mg/kg i.v. bolus, MEAN, read-out: T1/2 (converted)) of 1.32 h. For the same compound, the bioavailability (in vivo, po, 100 mg/kg p.o., read-out: absolute oral bioavailability) was 77.3%, the half-life (in vivo, po, after p.o. dosing 100 mg/kg, read-out: terminal plasma t1/2 (converted)) was 1.59 h and the AUC(0-inf) [6] was 221 ng·h/mL. The AUC(0-t) [6] was 217 ng·h/mL, the Cmax [6] was 802 ng/mL and the MRT [6] was 0.89 h. The AUC(0-inf) [7] was 178 ng·h/mL, the AUC(0-t) [7] was 175 ng·h/mL and the clearance [7] was 93.3 mL/min/kg. It also gave a Cmax [7] of 683 ng/mL, an MRT [7] of 0.95 h and a half-life (plasma, iv, 1 mg/kg, 1 mg/kg i.v. bolus, individual animals, read-out: T1/2 (converted)) of 1.75 h. For the same compound, the Vd [7] was 1.83 L/kg, the AUC(0-inf) [8] was 826 ng·h/mL and the AUC(0-t) [8] was 799 ng·h/mL. For the same compound, the Cmax [8] was 3820 ng/mL, the MRT [8] was 0.9 h and the AUC(0-inf) [9] was 732 ng·h/mL. For the same compound, the AUC(0-t) [9] was 730 ng·h/mL, the clearance [9] was 114 mL/min/kg and the Cmax [9] was 3840 ng/mL. The Vd [9] was 7.68 L/kg, the AUC(0-inf) [10] was 3310 ng·h/mL and the AUC(0-t) [10] was 3270 ng·h/mL. For the same compound, the Cmax [10] was 13500 ng/mL, the MRT [10] was 0.59 h and the AUC(0-inf) [11] was 2920 ng·h/mL. It also gave an AUC(0-t) [11] of 2830 ng·h/mL, a clearance [11] of 114 mL/min/kg and a Cmax [11] of 13400 ng/mL. The Vd [11] was 2.89 L/kg, the AUC(0-inf) [12] was 8470 ng·h/mL and the AUC(0-t) [12] was 8460 ng·h/mL. The Cmax [12] was 35500 ng/mL, the MRT [12] was 0.29 h and the AUC(0-inf) [13] was 8830 ng·h/mL. The AUC(0-t) [13] was 8830 ng·h/mL and the clearance [13] was 94.3 mL/min/kg.
